Test results reported in ChEMBL document CHEMBL5046263, “Characterization of the Aminosugar Biosynthetic and Regulatory Genes of Vicenistatin in Monodonata labio-Associated Streptomyces parvus SCSIO Mla-L010” (J Nat Prod, 2022).
pIC50: −log10 of the molar value. ≈ marks a conversion by molar mass, not a printed value.

Columns and labels:
Bacillus subtilis = test: Antibacterial activity against Bacillus subtilis BS01 assessed as bacterial growth inhibition; type: functional
Micrococcus luteus = test: Antibacterial activity against Micrococcus luteus ML01 assessed as bacterial growth inhibition; type: functional
Staphylococcus aureus [1] = test: Antibacterial activity against methicillin-resistant Staphylococcus aureus 718306 assessed as bacterial growth inhibition; type: functional
Staphylococcus aureus [2] = test: Antibacterial activity against Staphylococcus aureus ATCC 29213 assessed as bacterial growth inhibition; type: functional
Staphylococcus aureus [3] = test: Antibacterial activity against methicillin-resistant Staphylococcus aureus shhs-E1 assessed as bacterial growth inhibition; type: functional
Staphylococcus aureus [4] = test: Antibacterial activity against methicillin-resistant Staphylococcus aureus 16339 assessed as bacterial growth inhibition; type: functional
Staphylococcus aureus [5] = test: Antibacterial activity against methicillin-resistant Staphylococcus aureus 745524 assessed as bacterial growth inhibition; type: functional
Staphylococcus aureus [6] = test: Antibacterial activity against methicillin-resistant Staphylococcus aureus 16162 assessed as bacterial growth inhibition; type: functional
Staphylococcus aureus [7] = test: Antibacterial activity against methicillin-resistant Staphylococcus aureus 6917 assessed as bacterial growth inhibition; type: functional
[8] = test system: Mycolicibacterium smegmatis; test: Antibacterial activity against Mycobacterium smegmatis ATCC607 assessed as bacterial growth inhibition; type: functional
Helicobacter pylori [9] = test: Antibacterial activity against Helicobacter pylori G27 assessed as bacterial growth inhibition; type: functional
Helicobacter pylori [10] = test: Antibacterial activity against Helicobacter pylori 159 assessed as bacterial growth inhibition; type: functional
Candida albicans [11] = test: Antifungal activity against Candida albicans C5 assessed as fungal growth inhibition; type: functional
Candida albicans [12] = test: Antifungal activity against Candida albicans ATCC SC5314 assessed as fungal growth inhibition; type: functional
Cryptococcus neoformans = test: Antifungal activity against Cryptococcus neoformans ATCC4906 assessed as fungal growth inhibition; type: functional
MCF7 = test: Cytotoxicity against human MCF7 cells assessed as reduction in cell viability after 72 hrs by MTT assay; type: functional, cell-based; conditions: MCF7, 72 h
HepG2 = test: Cytotoxicity against human HepG2 cells assessed as reduction in cell viability after 72 hrs by MTT assay; type: functional, cell-based; conditions: HepG2, 72 h
HeLa = test: Cytotoxicity against human HeLa cells assessed as reduction in cell viability after 72 hrs by MTT assay; type: functional, cell-based
A549 = test: Cytotoxicity against human A549 cells assessed as reduction in cell viability by after 72 hrs MTT assay; type: functional, cell-based; conditions: A549, 72 h
RKO = test: Cytotoxicity against human RKO cells assessed as reduction in cell viability after 72 hrs by MTT assay; type: functional, cell-based
HL-60 = test: Cytotoxicity against human HL-60 cells assessed as reduction in cell viability after 72 hrs by MTT assay; type: functional, cell-based; conditions: HL-60, 72 h
[13] = Cytotoxicity against human L02 cells assessed as reduction in cell viability after 72 hrs by MTT assay; type: toxicity, cell-based
[14] = Cytotoxicity against human BEAS-2B cells assessed as reduction in cell viability after 72 hrs by MTT assay; type: toxicity, cell-based

Row | SMILES | MIC (Bacillus subtilis) [µg/mL] | MIC (Micrococcus luteus) [µg/mL] | MIC (Staphylococcus aureus [1]) [µg/mL] | MIC (Staphylococcus aureus [2]) [µg/mL] | MIC (Staphylococcus aureus [3]) [µg/mL] | MIC (Staphylococcus aureus [4]) [µg/mL] | MIC (Staphylococcus aureus [5]) [µg/mL] | MIC (Staphylococcus aureus [6]) [µg/mL] | MIC (Staphylococcus aureus [7]) [µg/mL] | MIC [8] [µg/mL] | MIC (Helicobacter pylori [9]) [µg/mL] | MIC (Helicobacter pylori [10]) [µg/mL] | MIC (Candida albicans [11]) [µg/mL] | MIC (Candida albicans [12]) [µg/mL] | MIC (Cryptococcus neoformans) [µg/mL] | pIC50 (MCF7) | pIC50 (HepG2) | pIC50 (HeLa) | pIC50 (A549) | pIC50 (RKO) | also measured
1 | CN[C@H](CC(C)C)C(=O)N[C@H]1C(=O)N[C@@H](CC(N)=O)C(=O)N[C@H]2C(=O)N[C@H]3C(=O)N[C@H](C(=O)N[C@H](C(=O)O)c4cc(O)cc(O)c4-c4cc3ccc4O)[C@H](O)c3ccc(c(Cl)c3)Oc3cc2cc(c3O[C@@H]2O[C@H](CO)[C@@H](O)[C@H](O)[C@H]2O[C@H]2C[C@](C)(N)[C@H](O)[C@H](C)O2)Oc2ccc(cc2Cl)[C@H]1O [VANCOMYCIN] | 0.13 (≈ 0.0897 µM) | 0.13 (≈ 0.0897 µM) | 0.25 (≈ 0.173 µM) |  |  |  |  |  |  |  |  |  |  |  |  |  |  |  |  |  | 
2 | CN[C@H]1[C@@H](O)C[C@H](O[C@H]2C/C=C(\C)C/C(C)=C/C=C/CC[C@H](C)CNC(=O)/C=C/C=C/[C@@H]2C)O[C@@H]1C [VICENISTATIN] | 0.13 (≈ 0.26 µM) | 0.06 (≈ 0.12 µM) | 0.13 (≈ 0.26 µM) | 0.06 (≈ 0.12 µM) | 0.13 (≈ 0.26 µM) | 0.06 (≈ 0.12 µM) | 0.06 (≈ 0.12 µM) | 0.13 (≈ 0.26 µM) | 0.06 (≈ 0.12 µM) | > 64 | 1 (≈ 2 µM) | 1 (≈ 2 µM) | 4 (≈ 7.99 µM) | 4 (≈ 7.99 µM) | 2 (≈ 3.99 µM) | 6.10 | 5.70 | 5.86 | 6.12 | 5.63 | pIC50 (HL-60): 6.19; IC50 at 72 h [13]: 890 nM; IC50 at 72 h [14]: 1400 nM
3 | C/C1=C\C=C\CC[C@H](C)CNC(=O)/C=C/C=C/[C@H](C)[C@@H](O[C@H]2C[C@H](O)[C@H](N)[C@@H](C)O2)C/C=C(\C)C1 | 0.5 (≈ 1.03 µM) | 0.25 (≈ 0.514 µM) | 0.25 (≈ 0.514 µM) | 0.13 (≈ 0.267 µM) | 0.25 (≈ 0.514 µM) | 0.5 (≈ 1.03 µM) | 0.25 (≈ 0.514 µM) | 0.25 (≈ 0.514 µM) | 0.13 (≈ 0.267 µM) | 4 (≈ 8.22 µM) | 1 (≈ 2.05 µM) | 1 (≈ 2.05 µM) | 2 (≈ 4.11 µM) | 1 (≈ 2.05 µM) | 2 (≈ 4.11 µM) | 5.94 | 5.68 | 5.89 | 5.88 | 5.68 | pIC50 (HL-60): 6.05; IC50 at 72 h [13]: 5360 nM; IC50 at 72 h [14]: 3230 nM
4 | CC1(C)S[C@@H]2[C@H](NC(=O)[C@H](N)c3ccccc3)C(=O)N2[C@H]1C(=O)O [AMPICILLIN] |  |  |  |  |  |  |  |  |  | 64 (≈ 183 µM) | 4 (≈ 11.4 µM) | 4 (≈ 11.4 µM) |  |  |  |  |  |  |  |  | 
5 | C[C@@H]1[C@H](O)[C@@H](C)/C=C/C=C/C=C/C=C/C=C/C=C/C=C/[C@H](O[C@@H]2O[C@H](C)[C@@H](O)[C@H](N)[C@@H]2O)C[C@@H]2O[C@](O)(C[C@@H](O)C[C@@H](O)[C@H](O)CC[C@@H](O)C[C@@H](O)CC(=O)O[C@H]1C)C[C@H](O)[C@H]2C(=O)O [AMPHOTERICIN B] |  |  |  |  |  |  |  |  |  |  |  |  | 1 (≈ 1.08 µM) | 1 (≈ 1.08 µM) | 2 (≈ 2.16 µM) |  |  |  |  |  | 
